US20120178742A1, “METABOTROPIC GLUTAMATE RECEPTOR MODULATORS” (MERZ PHARMA GmbH & CO. KGaA, priority 2009, published 2012)

Experiments:
[1] = target: T1, human metabotropic glutamate receptor mGluR5 (Homo sapiens, UniProt P41594); experiment: Cytosolic calcium studies with stably transfected cells (CHO-K1); type: cell-based
T1 construct: expressed in transfected cells; host or cells: CHO-K1
Procedure: Functional Assay of mGluR5 Receptors Cytosolic Calcium Studies with Stably Transfected Cells
Chinese hamster ovary cells (CHO-K1 cells), stably transfected for inducible expression of a human metabotropic glutamate receptor mGluR5, are seeded into black clear bottom 96 well plates at a density of 35.000 cells per well. The standard growth medium used (Dulbecco's modified Eagle Medium, DMEM plus L-proline) contains the appropriate inducer isopropyl-β-D-thiogalactopyranosid (IPTG) to achieve optimal receptor expression. One day after seeding the growth medium is exchanged for reconstituted Ca-Kit (Molecular Devices, USA) and incubated for one hour. Ca-Kit is reconstituted in an assay buffer containing 20 mM HEPES pH 7.4, glutamic-pyruvate transaminase, pyridoxal phosphate and sodium pyruvate in Hank's balanced salt solution (HBBS). Agonistic compounds to the receptor elicit increases in cytosolic calcium which can be measured as increases in fluorescence signals by use of a fluorescence imaging plate reader (Molecular Devices). […] Similarly, for the characterization of positive allosteric modulators, a dilution series of the test compound is added online to 384 well plates containing the described dye loaded cells and after a preincubation time of 5 minutes stimulated by a basal cell concentration of the agonist L-glutamate giving about 20% of the maximal signal.
(§1) The fluorescence signal increase after addition of agonist reflects the increase of cytosolic calcium. Inconsistencies in the amount of cells per well are normalised by using the spatial uniformity correction of the FLIPR operating software Screenworks. The mean of replicated temporal data (n=3-5) is calculated and used for graphical representation. For the evaluation of the pharmacology, the calcium changes in response to different concentrations of agonist or antagonist are determined using a maximum minus minimum (MaxMin) calculation.
(§2) All responses (RFU-values) are determined as percentage of control (=maximum response). EC50 and IC50 are calculated according the logistic equation using Prism 4.0 (GraphPad Software, USA).

mGluR5 receptors = target: T2, mGluR5 receptors (Rattus norvegicus, UniProt P31424); experiment: Cytosolic calcium studies with cultured rat astrocytes; type: cell-based
T2 construct: Primary astrocyte cultures are prepared from cortices of newborn rats; endogenous in cells; host or cells: primary rat cortical astrocytes (Sprague-Dawley pups)
Procedure: Primary astrocyte cultures are prepared from cortices of newborn rats as described by Booher and Sensenbrenner (1972, Neurobiology 2(3):97-105). Briefly, Sprague-Dawley rat pups (2-4 d old) are decapitated and neocortices are dissected, disintegrated with a nylon filter (pore size 80 μm) and carefully triturated. The cell suspension is plated on poly-D-lysine pre-coated flasks (Costar, Netherlands) and cultivated in Dulbecco's Modified Eagle's Medium (DMEM, Invitrogen, Germany) supplemented with 10% foetal calf serum (FCS, Sigma, Germany), 4 mM glutamine and […] gentamycin (both Biochrom, Germany) at 37° C. in a humidified atmosphere of 5% CO2/95% air for 7 days with exchanging the medium at day 2 and 6.
After 7 days in vitro (DIV), cells are shaken overnight at 250 rpm to remove oligodendrocytes and microglia. The next day, astrocytes are rinsed twice with CMF-PBS (calcium- and magnesium-free phosphate buffered saline, Biochrom, Germany), trypsinized and subplated on poly-D-lysine pre-coated 96-well plates (Greiner, Germany) at a density of 40,000 cells/well. 24 h after establishing the secondary culture the astrocytes are rinsed with PBS″ (phosphate buffered saline, Biochrom, Germany) and fed with astrocyte-defined medium (ADM) consisting of DMEM containing 1× G5-supplement (Invitrogen, Germany), 0.5 μg/ml heparan sulfate, and 1.5 μg/ml fibronectin (both Sigma, Germany) (Miller et al., (1993) Brain Res. 618(1):175-8). 3 days later the medium is exchanged and the cells incubated for another 2-3 days, so that at the time of experiments astrocytes are 14-15 DIV.
The increase of cytosolic calcium after stimulation with the mGluR5 agonist L-quisqualate is measured using a fluorometric imaging plate reader (FLIPR) and the Ca-Kit (both Molecular Devices). Prior to addition of agonist or antagonist the medium is aspirated and cells are loaded for 2 h at RT with 150 μl of loading buffer consisting of Ca-sensitive dye reconstituted in sodium chloride (123 mM), potassium chloride (5.4 mM), magnesium chloride (0.8 mM), calcium chloride (1.8 mM), D-glucose (15 mM), and HEPES (20 mM), pH 7.3. Subsequently, plates are transferred to FLIPR to detect calcium increase with the addition of L-quisqualate (100 nM) measured as relative fluorescence units (RFU). If antagonists are tested, these compounds are pre-incubated for 10 minutes at RT before addition of the respective agonist.
Thereafter, concentration-response curves for the positive modulator are performed in the presence of a fixed concentration of quisqualate showing the biggest window for potentiation (normally 10-30 nM).
as §1, §2

monoamine oxidase MAO-B = target: T3, monoamine oxidase MAO-B (Homo sapiens, UniProt P27338); experiment: Inhibition of monoamine oxidase MAO-B; type: biochemical; settings: recombinant human enzyme expressed in insect Hi5 cells, 50 uM kynuramine
T3 construct: host or cells: insect Hi5 cells
T3 sequence (P27338 1-520): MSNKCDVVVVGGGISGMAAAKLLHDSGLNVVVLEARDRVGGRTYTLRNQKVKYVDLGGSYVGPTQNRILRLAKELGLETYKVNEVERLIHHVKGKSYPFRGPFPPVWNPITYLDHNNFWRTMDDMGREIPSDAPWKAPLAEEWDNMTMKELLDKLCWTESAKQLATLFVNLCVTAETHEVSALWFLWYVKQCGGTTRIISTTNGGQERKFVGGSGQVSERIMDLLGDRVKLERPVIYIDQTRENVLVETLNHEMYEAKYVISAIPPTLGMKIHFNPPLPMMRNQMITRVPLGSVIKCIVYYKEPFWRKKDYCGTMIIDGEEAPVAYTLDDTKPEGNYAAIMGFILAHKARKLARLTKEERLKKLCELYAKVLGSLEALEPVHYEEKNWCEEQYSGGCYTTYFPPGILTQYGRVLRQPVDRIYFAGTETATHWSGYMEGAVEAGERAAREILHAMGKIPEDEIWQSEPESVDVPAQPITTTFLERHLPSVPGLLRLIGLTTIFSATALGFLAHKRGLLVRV
Procedure: The inhibition of the enzyme monoamine oxidase MAO-B is tested with an enzyme from recombinant source, namely of the human enzyme expressed in insect Hi5 cells. Following a pre-incubation of the test compounds with the enzyme for 15 minutes at 37° C. in the incubation buffer (100 mM potassium phosphate, pH 7.4), the enzymatic reaction with 50 uM kynuramine is carried out for 60 minutes. The reaction product 4-hydroxyquinoline is quantified by spectrofluorometry. The compound vehicle used for this assay is 1% DMSO.

T1 sequence (P41594 21-1212): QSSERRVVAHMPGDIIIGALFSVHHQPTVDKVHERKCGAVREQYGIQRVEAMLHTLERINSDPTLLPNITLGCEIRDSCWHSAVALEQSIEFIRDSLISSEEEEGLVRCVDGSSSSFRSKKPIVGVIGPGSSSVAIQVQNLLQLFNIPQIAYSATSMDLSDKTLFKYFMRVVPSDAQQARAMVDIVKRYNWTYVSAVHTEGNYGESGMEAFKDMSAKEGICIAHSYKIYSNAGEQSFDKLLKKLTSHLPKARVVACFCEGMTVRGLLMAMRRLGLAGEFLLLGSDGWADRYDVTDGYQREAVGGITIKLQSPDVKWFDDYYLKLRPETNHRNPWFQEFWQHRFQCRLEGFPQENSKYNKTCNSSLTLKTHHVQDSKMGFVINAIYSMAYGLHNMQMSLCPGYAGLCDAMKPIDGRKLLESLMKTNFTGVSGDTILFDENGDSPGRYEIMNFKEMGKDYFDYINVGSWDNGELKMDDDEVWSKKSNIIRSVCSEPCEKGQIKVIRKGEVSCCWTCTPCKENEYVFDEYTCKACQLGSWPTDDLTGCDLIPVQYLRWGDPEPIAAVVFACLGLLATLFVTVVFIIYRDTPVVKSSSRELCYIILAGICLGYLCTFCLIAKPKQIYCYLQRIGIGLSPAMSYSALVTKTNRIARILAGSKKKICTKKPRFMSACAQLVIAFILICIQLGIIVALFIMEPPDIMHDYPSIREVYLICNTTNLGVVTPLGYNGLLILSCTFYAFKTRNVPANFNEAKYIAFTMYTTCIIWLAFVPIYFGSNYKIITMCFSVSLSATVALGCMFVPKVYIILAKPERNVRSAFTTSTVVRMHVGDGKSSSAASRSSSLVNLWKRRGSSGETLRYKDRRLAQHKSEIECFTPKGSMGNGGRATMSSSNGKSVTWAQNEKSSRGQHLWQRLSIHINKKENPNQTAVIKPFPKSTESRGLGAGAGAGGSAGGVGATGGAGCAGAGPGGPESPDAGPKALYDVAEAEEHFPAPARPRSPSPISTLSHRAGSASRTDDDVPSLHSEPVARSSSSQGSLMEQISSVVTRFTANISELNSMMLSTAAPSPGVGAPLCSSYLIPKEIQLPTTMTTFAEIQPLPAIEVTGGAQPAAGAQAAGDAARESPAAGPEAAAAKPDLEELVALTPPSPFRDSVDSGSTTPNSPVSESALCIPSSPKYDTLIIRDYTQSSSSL
T2 sequence (P31424 21-1203): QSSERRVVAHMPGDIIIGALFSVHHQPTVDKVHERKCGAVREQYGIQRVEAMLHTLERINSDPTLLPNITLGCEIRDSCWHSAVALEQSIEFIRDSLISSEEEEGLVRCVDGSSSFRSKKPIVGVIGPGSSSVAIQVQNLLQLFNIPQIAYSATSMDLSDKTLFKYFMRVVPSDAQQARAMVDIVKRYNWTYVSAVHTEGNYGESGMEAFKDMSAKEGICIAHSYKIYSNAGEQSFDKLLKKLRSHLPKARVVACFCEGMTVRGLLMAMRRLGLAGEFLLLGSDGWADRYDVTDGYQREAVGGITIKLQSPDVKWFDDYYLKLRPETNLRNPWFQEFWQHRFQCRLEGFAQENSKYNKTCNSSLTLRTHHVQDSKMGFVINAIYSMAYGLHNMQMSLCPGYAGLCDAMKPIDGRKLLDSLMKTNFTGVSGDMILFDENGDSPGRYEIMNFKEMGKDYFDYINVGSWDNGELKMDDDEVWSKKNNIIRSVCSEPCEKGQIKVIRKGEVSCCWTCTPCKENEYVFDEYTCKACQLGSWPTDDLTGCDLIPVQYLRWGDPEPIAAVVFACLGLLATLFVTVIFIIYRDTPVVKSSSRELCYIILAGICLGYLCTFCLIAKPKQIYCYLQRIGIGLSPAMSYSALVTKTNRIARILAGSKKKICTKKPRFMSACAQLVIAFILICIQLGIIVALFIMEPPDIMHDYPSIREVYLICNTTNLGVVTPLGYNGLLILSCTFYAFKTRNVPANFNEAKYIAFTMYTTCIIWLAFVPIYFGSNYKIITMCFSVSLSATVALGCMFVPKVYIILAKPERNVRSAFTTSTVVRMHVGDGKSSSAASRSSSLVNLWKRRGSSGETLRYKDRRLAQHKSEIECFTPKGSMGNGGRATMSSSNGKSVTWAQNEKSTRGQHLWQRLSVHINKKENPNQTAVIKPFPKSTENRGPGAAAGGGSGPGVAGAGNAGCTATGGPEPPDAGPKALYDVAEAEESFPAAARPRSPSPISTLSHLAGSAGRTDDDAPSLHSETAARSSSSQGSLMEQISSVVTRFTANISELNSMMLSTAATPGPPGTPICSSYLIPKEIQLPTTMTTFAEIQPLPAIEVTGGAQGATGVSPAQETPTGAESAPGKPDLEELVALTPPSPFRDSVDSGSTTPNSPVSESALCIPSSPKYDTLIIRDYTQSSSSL

Fc1ccc(C#Cc2ccc3ncnn3c2)cc1 [Example 55, 6-(4-Fluoro-phenylethynyl)-[1,2,4]triazolo[1,5-a]pyridine]
EC50 [1]: 640 nM | EC50 (mGluR5 receptors): 400 nM

Cc1ccccc1C#Cc1cnc2ncsc2c1 [Example 75, 6-(o-Tolylethynyl)thiazolo[4,5-b]pyridine]
EC50 [1]: 2300 nM | EC50 (mGluR5 receptors): 530 nM

O=C(c1nc2ncc(C#CC3=CCCCC3)cc2o1)N1CCCCC1 [Example 72, (6-Cyclohex-1-enylethynyl-oxazolo[4,5-b]pyridin-2-yl)-piperidin-1-yl-methanone]
EC50 [1]: 330 nM | EC50 (mGluR5 receptors): 320 nM

Fc1ccccc1C#Cc1ccc2ncnn2c1 [Example 54, 6-(2-Fluoro-phenylethynyl)-[1,2,4]triazolo[1,5-a]pyridine]
EC50 [1]: 740 nM | EC50 (mGluR5 receptors): 470 nM

C(#Cc1cnc2ncnn2c1)c1ccccc1 [Example 33, 6-Phenylethynyl-[1,2,4]triazolo[1,5-a]pyrimidine]
EC50 [1]: 130 nM | EC50 (mGluR5 receptors): 230 nM

Cc1ccccc1C#Cc1cnc2cccnc2c1 [Example 94, 3-(o-Tolylethynyl)-[1,5]naphthyridine]
EC50 [1]: 410 nM | EC50 (mGluR5 receptors): 210 nM

Cc1ccc(C#Cc2cnc3cccnc3c2)cc1 [Example 93, 3-(p-Tolylethynyl)-[1,5]naphthyridine]
EC50 [1]: 36 nM | EC50 (mGluR5 receptors): 77 nM

Fc1ccccc1C#Cc1cnc2ncsc2c1 [Example 45, 6-(2-Fluoro-phenylethynyl)-thiazolo[4,5-b]pyridine]
EC50 [1]: 65 nM | EC50 (mGluR5 receptors): 56 nM

C(#Cc1cnc2nccnc2c1)c1ccccc1 [Example 39, 7-Phenylethynyl-pyrido[2,3-b]pyrazine]
EC50 [1]: 35 nM | EC50 (mGluR5 receptors): 100 nM

Fc1cccc(C#Cc2cnc3nccnc3c2)c1 [Example 60, 7-(3-Fluoro-phenylethynyl)-pyrido[2,3-b]pyrazine]
EC50 [1]: 100 nM | IC50 (monoamine oxidase MAO-B): 89 nM | EC50 (mGluR5 receptors): 54 nM

Fc1ccc(C#Cc2cnc3nccnc3c2)cc1 [Example 62, 7-(4-Fluoro-phenylethynyl)-pyrido[2,3-b]pyrazine]
EC50 [1]: 550 nM | EC50 (mGluR5 receptors): 730 nM

O=C(c1nc2ncc(C#Cc3ccccc3)cc2o1)N1CCCCC1 [Example 43, (6-Phenylethynyl-oxazolo[4,5-b]pyridin-2-yl)-piperidin-1-yl-methanone]
EC50 [1]: 150 nM | EC50 (mGluR5 receptors): 60 nM

Fc1ccc(C#Cc2cnc3ncsc3c2)c(F)c1 [Example 79, 6-((2,4-Difluorophenyl)ethynyl)thiazolo[4,5-b]pyridine]
EC50 [1]: 310 nM | EC50 (mGluR5 receptors): 220 nM

Fc1cccc(C#Cc2cnc3cccnc3c2)c1 [Example 67, 3-(3-Fluoro-phenylethynyl)-[1,5]naphthyridine]
EC50 [1]: 6.8 nM | EC50 (mGluR5 receptors): 8.6 nM

C(#Cc1cnc2ccnn2c1)C1=CCCCC1 [Example 8, 6-Cyclohex-1-enylethynyl-pyrazolo[1,5-a]pyrimidine]
EC50 [1]: 23 nM | EC50 (mGluR5 receptors): 70 nM

C(#Cc1cnc2cccnc2c1)c1ccncc1 [Example 100, 3-(Pyridin-4-ylethynyl)-1,5-naphthyridine]
EC50 [1]: 230 nM | EC50 (mGluR5 receptors): 310 nM

Fc1cccc(C#Cc2cnc3ccnn3c2)c1 [Example 3, 6-(3-Fluoro-phenylethynyl)-pyrazolo[1,5-a]pyrimidine]
EC50 [1]: 21 nM | EC50 (mGluR5 receptors): 76 nM

Fc1ccc(C#Cc2cnc3ccnn3c2)cc1 [Example 4, 6-(4-Fluoro-phenylethynyl)-pyrazolo[1,5-a]pyrimidine]
EC50 [1]: 120 nM | EC50 (mGluR5 receptors): 63 nM

Fc1cccc(C#Cc2cnc3ncsc3c2)c1 [Example 44, 6-(3-Fluoro-phenylethynyl)-thiazolo[4,5-b]pyridine]
EC50 [1]: 23 nM | EC50 (mGluR5 receptors): 37 nM

Fc1ccc(C#Cc2cnc3ncsc3c2)cc1 [Example 46, 6-(4-Fluoro-phenylethynyl)-thiazolo[4,5-b]pyridine]
EC50 [1]: 58 nM | IC50 (monoamine oxidase MAO-B): 540 nM | EC50 (mGluR5 receptors): 91 nM

Fc1cccc(C#Cc2cnc3ncnn3c2)c1 [Example 47, 6-(3-Fluoro-phenylethynyl)-[1,2,4]triazolo[1,5-a]pyrimidine]
EC50 [1]: 1300 nM | EC50 (mGluR5 receptors): 1500 nM

Fc1ccccc1C#Cc1cnc2nccnc2c1 [Example 61, 7-(2-Fluoro-phenylethynyl)-pyrido[2,3-b]pyrazine]
EC50 [1]: 300 nM | IC50 (monoamine oxidase MAO-B): 37 nM | EC50 (mGluR5 receptors): 190 nM

C(#Cc1cnc2nccnc2c1)C1=CCCCC1 [Example 40, 7-Cyclohex-1-enylethynyl-pyrido[2,3-b]pyrazine]
EC50 [1]: 120 nM | EC50 (mGluR5 receptors): 650 nM

Cc1cccc(C#Cc2cnc3ncsc3c2)c1 [Example 73, 6-(m-Tolylethynyl)thiazolo[4,5-b]pyridine]
EC50 [1]: 20 nM | EC50 (mGluR5 receptors): 14 nM

C(#Cc1cnc2ccnn2c1)c1ccccc1 [Example 1, 6-Phenylethynyl-pyrazolo[1,5-a]pyrimidine]
EC50 [1]: 38 nM | EC50 (mGluR5 receptors): 89 nM

C(#Cc1ccc2ncnn2c1)c1ccccc1 [Example 37, 6-Phenylethynyl-[1,2,4]triazolo[1,5-a]pyridine]
EC50 [1]: 110 nM | EC50 (mGluR5 receptors): 110 nM

C(#Cc1cnc2ncsc2c1)c1ccccc1 [Example 38, 6-Phenylethynyl-thiazolo[4,5-b]pyridine]
EC50 [1]: 10 nM | EC50 (mGluR5 receptors): 73 nM

C(#Cc1cnc2nc(N3CCCCC3)sc2c1)c1ccccc1 [Example 81, 6-Phenylethynyl-2-piperidin-1-yl-thiazolo[4,5-b]pyridine]
EC50 [1]: 91 nM | IC50 (monoamine oxidase MAO-B): 520 nM

Fc1ccccc1C#Cc1cnc2cccnc2c1 [Example 68, 3-(2-Fluoro-phenylethynyl)-[1,5]naphthyridine]
EC50 [1]: 19 nM | EC50 (mGluR5 receptors): 24 nM

C(#Cc1cnc2ccnn2c1)C1=CCSCC1 [Example 10, 6-(3,6-Dihydro-2H-thiopyran-4-ylethynyl)-pyrazolo[1,5-a]pyrimidine]
EC50 [1]: 110 nM | EC50 (mGluR5 receptors): 50 nM
